Measured values taken from patent US7820624B2, “Peptide ligands” (ICH Productions Limited, priority 2003, dated 2010).

How the values were obtained:
[1] = test system: human monocyte-derived immature dendritic cells; assay: Titration of phage clone binding to human dendritic cells; settings: 2×10^11 phage on 5×10^4 cells, 1 hour on ice
Protocol: Phage were recovered and titred from each round of selection as follows. 2×10^11 Blocked phage were added to 5×10^4 blocked monocyte-derived immature dendritic cells for 1 hour on ice before washing cells three times with 0.05% Tween20-PBS, eluting phage with TBS pH5.5, and lysing cells to harvest the phage remaining bound. The numbers of phage harvested by cell lysis were calculated as plaque forming units (pfu). […] Sequencing of the bound phage shown in FIG. 1 identified the peptides as APSNSTA [SEQ. ID. NO.:15], QLLTGAS [SEQ. ID. NO.:30], TARDYRL [SEQ. ID. NO.:31], FQSQYQK [SEQ. ID. NO.:26], PLMPSLS [SEQ. ID. NO.:24], FPRAPHH [SEQ. ID. NO.:32], MASISMK [SEQ. ID. NO.:27], DWWHTSA [SEQ. ID. NO.:28], SHVKLNS [SEQ. ID. NO.:29], and SPALKTV [SEQ. ID. NO.:16].
(§1) The dendritic cells were spun down at 2000 rpm, for 5 min at 4° C., and resuspended in the phage solution, allowing the phage to bind for 1 hour on ice with occasional mixing. The cells were then washed in PBS-Tween 20 (0.05%) three times before eluting phage with 166 μl TBS pH5.5. for 10 min on ice. The eluate was neutralised with […] Tris-HCl pH 8, the cells were spun down, and the supernatant removed to be stored as eluate. The cell pellet was resuspended in 200 μl of cell lysis buffer (30 mM Tris-HCl, 1 mM EDTA pH 8.0) for 1 hour on ice, with shaking. The cell debris was removed by spinning at 5000 rpm for 5 min and the supernatant recovered. The phage in the eluate and the cell lysate were titred by measuring plaque forming units (pfu) in E. coli ER2738 as described in the NEB C7C technical bulletin.
(§2) The titration of phage clone binding was carried out using human and mouse dendritic cells, with binding to plastic as a control. The human cells were obtained from donors as stated below.

[2] = Titration of phage clone binding to blocked plastic (control)
Protocol: as §1, §2

HMEC-1 cells = assay: LID transfection, luciferase reporter assay, HMEC-1; type: cell-based, human; settings: LID with lipofectin
Protocol: (§3) Transfection complexes comprising lipid, peptide and DNA were prepared. The lipid component was lipofectin (Invitrogen Ltd, Paisley, UK), the peptide component was a peptide A to F, 6 or 6J derivative, as described above, and the DNA was the plasmid pCILuc (Promega UK Ltd, Southampton). In the transfection complex, peptide to DNA charge ratios (+/−) were used at 3:1, 5:1 and 7:1. The lipid component was maintained at a constant proportion, by weight, relative to DNA of 0.75:1. Prior to making transfection complexes the lipid component was diluted to a concentration of 15 μg or 30 μg per ml, the peptide was prepared at 0.1 mg/ml and the DNA was at 40 μg per ml. All dilutions were performed with OptiMEM reduced serum tissue culture medium (Life Technologies). Transfection complexes were made by mixing of components in the order 1) lipid then 2) peptide and finally 3) DNA, then diluted with OptiMEM to a concentration relative to the DNA component of 0.25 μg DNA per […]
(§4) For transfection of these types of cell i.e. HMEC, HAEo-, N2a and HepG2, 1×10^4 cells were seeded overnight in 96 well plate. 200 μl of the suspension of the transfection complex prepared according to (b) above was added to each well. The suspension was applied to cells within 5 minutes of preparation. […]

HAEo- cells = assay: LID transfection, luciferase reporter assay, HAEo-; type: cell-based, human; settings: LID with lipofectin
Protocol: as §3, §4

N2a (Neuro2A) cells = assay: LID transfection, luciferase reporter assay, N2a; type: cell-based, mouse; settings: LID with lipofectin
Protocol: as §3, §4

In the case of “APSNSTA (Synthetic peptide binding to dendritic cells)”, the “Phage harvested by cell lysis (pfu), human donor S” value [1] is reported as 6480 pfu ×10^3, the “Phage harvested by cell lysis (pfu), human donor one” value [1] is reported as 1920 pfu ×10^3 and the “Phage harvested by cell lysis (pfu), human donor two” value [1] is reported as 460 pfu ×10^3. For the same substance, the “Phage titre (pfu), plastic” value [2] was 480 pfu ×10^3, the “Transfection efficiency (luciferase activity per mg protein) relative to peptide 6” value (HMEC-1 cells) was “one and a half times that of peptide 6” and the “Transfection efficiency (luciferase activity per mg protein) relative to peptide 6” value (HAEo- cells) was “one and a half times that using peptide 6”. The “Transfection efficiency (luciferase activity per mg protein) relative to peptide 6” value (N2a (Neuro2A) cells) was “less than half that value”.

With “SHVKLNS (Synthetic peptide binding to dendritic cells)” the “Phage harvested by cell lysis (pfu), human donor S” value [1] was 7280 pfu ×10^3, the “Phage harvested by cell lysis (pfu), human donor one” value [1] was 2620 pfu ×10^3 and the “Phage harvested by cell lysis (pfu), human donor two” value [1] was 1160 pfu ×10^3. The “Phage titre (pfu), plastic” value [2] was 720 pfu ×10^3, the “Transfection efficiency (luciferase activity per mg protein) relative to peptide 6” value (HMEC-1 cells) was “approximately equal to that seen with peptide 6” and the “Transfection efficiency (luciferase activity per mg protein) relative to peptide 6” value (HAEo- cells) was “approximately double that seen with peptide 6”. The “Transfection efficiency (luciferase activity per mg protein) relative to peptide 6” value (N2a (Neuro2A) cells) was “equal to those seen with peptide 6”.
